# US11702411B2, “Pyridine, pyrazine, and triazine compounds as allosteric SHP2 inhibitors” (Revolution Medicines, Inc., priority 2017, dated 2023)
# pIC50: −log10 of the molar value.
# Target: SHP2 (Homo sapiens (Human), UniProt Q06124)
# Assay: SHP2 allosteric inhibition assay (DiFMUP prompt fluorescence, activating peptide)
# Type: biochemical
# Conditions: 0.2 nM SHP2, 0.5 μM activating peptide, DiFMUP substrate; read-out: SHP2 Allosteric IC50
# Source text: Without wishing to be bound by theory, SHP is allosterically activated through binding of bis-tyrosyl-phosphorylated peptides to its Src Homology 2 (SH2) domains. The latter activation step leads to the release of the auto-inhibitory interface of SHP2, which in turn renders the SHP2 protein tyrosine phosphatase (PTP) active and available for substrate recognition and reaction catalysis. The catalytic activity of SHP2 was monitored using the surrogate substrate DiFMUP in a prompt fluorescence assay format.
# The phosphatase reactions were performed at room temperature in 96-well black polystyrene plate, flat bottom, non-binding surface (Corning, Cat #3650) using a final reaction volume of 100 μL and the following assay buffer conditions: 50 mM HEPES, pH 7.2, 100 mM NaCl, 0.5 mM EDTA, 0.05% P-20, 1 mM DTT.
# The inhibition of SHP2 by compounds of the present disclosure (concentrations varying from 0.00005-10 μM) was monitored using an assay in which 0.2 nM of SHP2 was incubated with 0.5 μM of Activating Peptide 1 (sequence: H2N-LN(pY)IDLDLV(dPEG8)LST(pY)ASINFQK-amide) or Activating Peptide 2 (sequence: H2N-LN(pY)AQLWHA(dPEG8)LTI(pY)ATIRRF-amide). After 30-60-minutes incubation at 25° C., the surrogate substrate DiFMUP (Invitrogen, Cat #D6567) was added to the reaction and activity was determined by a kinetic read using a microplate reader (Envision, Perkin-Elmer or Spectramax M5, Molecular Devices). The excitation and emission wavelengths were 340 nm and 450 nm, respectively. Initial rates were determined from a linear fit of the data, and the inhibitor dose response curves were analyzed using normalized IC50 regression curve fitting with control based normalization.
row,Structure (SMILES),pIC50
1,"CC1(N)CCN(c2ncc(Sc3ccnc(N)c3Cl)nc2CO)CC1 [Compound 4, (6-((2-amino-3-chloropyridin-4-yl)thio)-3-(4-amino-4-methylpiperidin-1-yl)pyrazin-2-yl)methanol]",≥ 7.30
2,"C[C@@H]1OCC2(CCN(c3ncc(-c4c(O)ccc(Cl)c4Cl)nc3CO)CC2)[C@@H]1N [Compound 8, 2-{5-[(3S,4S)-4-amino-3-methyl-2-oxa-8-azaspiro[4.5]decan-8-yl]-6-(hydroxymethyl)pyrazin-2-yl}-3,4-dichlorophenol]",6.30 to 7.30
3,"N[C@@H]1CCCC12CCN(c1ncc(-c3cccc(Cl)c3Cl)nc1CO)CC2 [Compound 2, (3-[(1R)-1-amino-8-azaspiro[4.5]decan-8-yl]-6-(2,3-dichlorophenyl)pyrazin-2-yl)methanol]",6.30 to 7.30
4,"C[C@@H]1OCC2(CCN(c3ncc(-c4cc(Cl)c5cn[nH]c5c4)nc3CO)CC2)[C@@H]1N [Compound 13, {3-[(3S,4S)-4-amino-3-methyl-2-oxa-8-azaspiro[4.5]decan-8-yl]-6-(4-chloro-2H-indazol-6-yl)pyrazin-2-yl}methanol]",6.30 to 7.30
5,"C[C@@H]1OCC2(CCN(c3ncc(-c4ccc5c(c4Cl)OCCC5)nc3CO)CC2)[C@@H]1N [Compound 16, {3-[(3S,4S)-4-amino-3-methyl-2-oxa-8-azaspiro[4.5]decan-8-yl]-6-(8-chloro-3,4-dihydro-2H-1-benzopyran-7-yl)pyrazin-2-yl}methanol]",6.30 to 7.30
6,"C[C@@H]1OCC2(CCN(c3ncc(-c4c(Cl)c(Cl)cc5c4OCO5)nc3CO)CC2)[C@@H]1N [Compound 6, {3-[(3S,4S)-4-amino-3-methyl-2-oxa-8-azaspiro[4.5]decan-8-yl]-6-(5,6-dichloro-2H-1,3-benzodioxol-4-yl)pyrazin-2-yl}methanol]",6.30 to 7.30
7,"N[C@@H]1CCCC12CCN(c1ncc(-c3ccnc(Cl)c3Cl)nc1CO)CC2 [Compound 1, (3-[(1R)-1-amino-8-azaspiro[4.5]decan-8-yl]-6-(2,3-dichloropyridin-4-yl)pyrazin-2-yl)methanol]",6.30 to 7.30
8,"COc1ccc(Cl)c(Cl)c1-c1cnc(N2CCC3(CC2)CO[C@@H](C)[C@H]3N)c(CO)n1 [Compound 7, {3-[(3S,4S)-4-amino-3-methyl-2-oxa-8-azaspiro[4.5]decan-8-yl]-6-(2,3-dichloro-6-methoxyphenyl)pyrazin-2-yl}methanol]",< 6.30
9,"C[C@@H]1OCC2(CCN(c3ccc(Sc4ccnc(N)c4Cl)nc3CO)CC2)[C@@H]1N [Compound 5, [6-[(2-amino-3-chloro-4-pyridyl)sulfanyl]-3-[(3S,4S)-4-amino-3-methyl-2-oxa-8-azaspiro[4.5]decan-8-yl]-2-pyridyl]methanol]",≥ 7.30
10,"C[C@@H]1OCC2(CCN(c3ncc(-c4ccc5[nH]ncc5c4)nc3CO)CC2)[C@@H]1N [Compound 20, {3-[(3S,4S)-4-amino-3-methyl-2-oxa-8-azaspiro[4.5]decan-8-yl]-6-(2H-indazol-5-yl)pyrazin-2-yl}methanol]",6.30 to 7.30
11,"CC1(N)CCN(c2ncc(-c3cccc(Cl)c3Cl)nc2CO)CC1 [Compound 3, [3-(4-amino-4-methylpiperidin-1-yl)-6-(2,3-dichlorophenyl)pyrazin-2-yl]methanol]",6.30 to 7.30
12,"C[C@@H]1OCC2(CCN(c3ncc(-c4ccc5c(c4Cl)OCC5)nc3CO)CC2)[C@@H]1N [Compound 10, {3-[(3S,4S)-4-amino-3-methyl-2-oxa-8-azaspiro[4.5]decan-8-yl]-6-(7-chloro-2,3-dihydro-1-benzofuran-6-yl)pyrazin-2-yl}methanol]",6.30 to 7.30
13,"C[C@@H]1OCC2(CCN(c3ncc(-c4c(Cl)ccc(Cl)c4Cl)nc3CO)CC2)[C@@H]1N [Compound 18, {3-[(3S,4S)-4-amino-3-methyl-2-oxa-8-azaspiro[4.5]decan-8-yl]-6-(2,3,6-trichlorophenyl)pyrazin-2-yl}methanol]",6.30 to 7.30

# Results, then the compound that gave them:
row,pIC50,Structure (SMILES)
1,≥ 7.30,"COc1nccc(Sc2cnc(N3CCC4(CC3)CO[C@@H](C)[C@H]4N)c(CO)n2)c1Cl [Compound 24, {3-[(3S,4S)-4-amino-3-methyl-2-oxa-8-azaspiro[4.5]decan-8-yl]-6-[(3-chloro-2-methoxypyridin-4-yl)sulfanyl]pyrazin-2-yl}methanol]"
2,≥ 7.30,"C[C@@H]1OCC2(CCN(c3ncc(Sc4ccnc(N5CC(S(C)(=O)=O)C5)c4Cl)nc3CO)CC2)[C@@H]1N [Compound 26, {3-[(3S,4S)-4-amino-3-methyl-2-oxa-8-azaspiro[4.5]decan-8-yl]-6-{[3-chloro-2-(3-methanesulfonylazetidin-1-yl)pyridin-4-yl]sulfanyl}pyrazin-2-yl}methanol]"
3,≥ 7.30,"C[C@@H]1OCC2(CCN(c3ncc(-c4cccc(Cl)c4Cl)nc3CO)CC2)[C@@H]1N [Compound 21, {3-[(3S,4S)-4-amino-3-methyl-2-oxa-8-azaspiro[4.5]decan-8-yl]-6-(2,3-dichlorophenyl)pyrazin-2-yl}methanol]"
4,≥ 7.30,"C[C@@H]1OCC2(CCN(c3ncc(Sc4ccnc(C#N)c4Cl)nc3CO)CC2)[C@@H]1N [Compound 23, 4-({5-[(3S,4S)-4-amino-3-methyl-2-oxa-8-azaspiro[4.5]decan-8-yl]-6-(hydroxymethyl)pyrazin-2-yl}sulfanyl)-3-chloropyridine-2-carbonitrile]"
5,6.30 to 7.30,"C[C@@H]1OCC2(CCN(c3ncc(-c4cccc(Cl)c4Cl)nc3C(F)F)CC2)[C@@H]1N [Compound 35, (3S,4S)-8-[5-(2,3-dichlorophenyl)-3-(difluoromethyl)pyrazin-2-yl]-3-methyl-2-oxa-8-azaspiro[4.5]decan-4-amine]"
6,≥ 7.30,"COc1cccc(Sc2cnc(N3CCC4(CC3)CO[C@@H](C)[C@H]4N)c(CO)n2)c1Cl [Compound 25, {3-[(3S,4S)-4-amino-3-methyl-2-oxa-8-azaspiro[4.5]decan-8-yl]-6-[(2-chloro-3-methoxyphenyl)sulfanyl]pyrazin-2-yl}methanol]"
7,≥ 7.30,"C[C@@H]1OCC2(CCN(c3ncc(Sc4cccc(C#N)c4Cl)nc3CO)CC2)[C@@H]1N [Compound 22, 3-({5-[(3S,4S)-4-amino-3-methyl-2-oxa-8-azaspiro[4.5]decan-8-yl]-6-(hydroxymethyl)pyrazin-2-yl}sulfanyl)-2-chlorobenzonitrile]"
8,≥ 7.30,"C[C@@H]1OCC2(CCN(c3ncc(Sc4cccc(C(=O)N(C)C)c4Cl)nc3CO)CC2)[C@@H]1N [Compound 28, 3-({5-[(3S,4S)-4-amino-3-methyl-2-oxa-8-azaspiro[4.5]decan-8-yl]-6-(hydroxymethyl)pyrazin-2-yl}sulfanyl)-2-chloro-N,N-dimethylbenzamide]"
9,≥ 7.30,"C[C@@H]1OCC2(CCN(c3ncc(Sc4ccnc(NC5CCOCC5)c4Cl)nc3CO)CC2)[C@@H]1N [Compound 27, {3-[(3S,4S)-4-amino-3-methyl-2-oxa-8-azaspiro[4.5]decan-8-yl]-6-({3-chloro-2-[(oxan-4-yl)amino]pyridin-4-yl}sulfanyl)pyrazin-2-yl}methanol]"
10,≥ 7.30,"C[C@@H]1OCC2(CCN(c3ncc(Sc4cc(N)ncc4Cl)nc3CO)CC2)[C@@H]1N [Compound 32, {3-[(3S,4S)-4-amino-3-methyl-2-oxa-8-azaspiro[4.5]decan-8-yl]-6-[(2-amino-5-chloropyridin-4-yl)sulfanyl]pyrazin-2-yl}methanol]"

# Same assay, conditions: 0.2 nM SHP2, 0.5 μM activating peptide, DiFMUP substrate; read-out: SHP2 IC50
row,Structure (SMILES),pIC50
1,"N[C@@H]1CCCC12CCN(c1ncc(-c3cccc(Cl)c3Cl)nc1CO)CC2 [Compound 2, (3-[(1R)-1-amino-8-azaspiro[4.5]decan-8-yl]-6-(2,3-dichlorophenyl)pyrazin-2-yl)methanol]",7.06
2,"N[C@@H]1CCCC12CCN(c1ncc(-c3ccnc(Cl)c3Cl)nc1CO)CC2 [Compound 1, (3-[(1R)-1-amino-8-azaspiro[4.5]decan-8-yl]-6-(2,3-dichloropyridin-4-yl)pyrazin-2-yl)methanol]",6.84
3,"CC1(N)CCN(c2ncc(-c3cccc(Cl)c3Cl)nc2CO)CC1 [Compound 3, [3-(4-amino-4-methylpiperidin-1-yl)-6-(2,3-dichlorophenyl)pyrazin-2-yl]methanol]",6.34
